Numbers after ± are expanded uncertainties.

Series [1] can be described thus: molar heat capacity at constant pressure. Conditions: 298.15 K; 101.33 kPa; Crystal; Small sample (50 mg) DSC.
For series [2] the following is noted: Crystal; for Normal melting temperature: DTA.
A short description of series [3]: Molar enthalpy of transition or fusion. Conditions: Crystal; DSC.

The mass density is mass per unit of volume. `CC(=O)N1CCOC1=O` [3-acetyl-2-oxazolidinone]: the “molar heat capacity at constant pressure” value in series [1] was 164.7 ± 3.5 J/K/mol. In addition, in series [2] (298.15 K, 101.33 kPa, measuring the mass and volume of a pellet of the compound), the mass density was 1230 ± 60 kg/m3. Also, in series [2], the Normal melting temperature came to 69.8 ± 0.6 °C. In series [3], the “Molar enthalpy of transition or fusion” value amounted to 3.67 ± 0.124 kcal/mol.
In the case of `O=C1NCCO1` [2-oxazolidone], the “molar heat capacity at constant pressure” value in series [1] is on record as 113.8 ± 3.5 J/K/mol. Also, in series [2], the Normal melting temperature is 90 ± 0.4 °C. Also, the “Molar enthalpy of transition or fusion” value in series [3] was determined as 3.89 ± 0.139 kcal/mol.

Values taken from the NIST ThermoML archive (doi:10.1016/j.jct.2016.07.038).
